Results published in patent US8093286B2, “Methods for treatment with bucindolol based on genetic targeting” (The Regents of the University of Colorado, a body corporate, priority 2004, dated 2012).
Entries after “also recorded” stand apart in the source; their conditions may differ. Structures can show the parent of a compound that is named as a salt.

Experiments:
[1] = tested on: failing human right ventricular trabeculae; assay: contractile response of isolated right ventricular trabeculae from failing human hearts; conditions: hydrochloride
Protocol: Nonfailing hearts were obtained from local potential organ donors whose hearts were not transplanted because of physical or ABO blood type incompatibility. Failing hearts were from patients with end-stage heart failure due to ischemic or non-ischemic dilated cardiomyopathies who underwent cardiac transplantation. The demographic characteristics of the hearts are provided in Results. The contractile response of isolated, field stimulated, human trabeculae was assessed as previously described {1755; a-c}. Trabeculae of uniform size (1 to 2×6 to 8 mm) were mounted in 80 ml muscle bath chambers in Tyrode's solution at pH 7.45 bubbled with 95% O2-5% CO2 at 36^0. After equilibration, a tension of 75% of Lmax was applied to each individual trabeculum. Field-stimulation by a 5-ms pulse at 10% above threshold was then applied, and after equilibration full dose-response curves to isoproterenol, bucindolol or xamoterol were performed using the indicated concentrations and application of increasing doses every 5 minutes. In experiments in which forskolin was used to enhance signal transduction {e,f}, 10^−6 M of this adenylyl cyclase activator was applied to the tissue baths 15-20 minutes prior to the performance of dose-response curves, and allowed to achieve stability of tension response. Systolic tension at each dose was calculated as the stimulated tension in mN/mm^2 minus baseline tension. The maximum tension, concentration of isoproterenol that produced 50% of the maximum developed tension (EC50) and curve slope were computed by nonlinear repeated measures analysis of covariance. […] Statistical methods were employed as described in Examples 3 and 4.

[2] = tested on: advanced heart failure patients; assay: proposed bucindolol vs metoprolol CR/XL trial (Study Design II); assay type: in vivo, human
From the text: In Study Design II (FIG. 28) for an additional study design, patients with symptomatic and advanced heart failure (reinforced by the heart failure hospitalization history over the preceding year; therefore, patients who are Class II at the time of screening are allowed in the trial) and LVEFs≦0.35 (the general description of the BEST Trial population) are initially screened for the absence of the α2c 322-325 DEL polymorphism, in the carrier state (either heterozygous or homozygous). […]
The primary endpoint of the trial is noninferiority against metoprolol CR/XL (TOPROL-XL), using the 95% upper confidence limit (UCL) of the time to mortality plus heart failure hospitalization endpoint hazard ratio that was measured in the MERIT-HF trial (Hjalmarson et al. 2000). […] The 95% upper confidence limit for the hazard ratio (UCL) for bucindolol:metoprolol CR/XL (“noninferiority margin”) has been determined from the formula (Hasselblad et al., 2001) {(UCL bucindolol:metoprolol CR/XL)*(UCL metoprolol CR/XL:placebo)≦1.0}; using the MERIT-HF entire cohort UCL of 0.80 for metoprolol:placebo yields x*0.80≦1.0, or a noninferiority margin x≦1.25. […]

CC(C)(Cc1c[nH]c2ccccc12)NCC(O)COc1ccccc1C#N (stereo not drawn) [bucindolol, (2-{2-hydroxy-3{{2-(3-indolyl)-1,1-dimethylethyl}amino}propoxy}-benzonitrile hydrochloride)]
intrinsic sympathomimetic activity (increase in force) ([1]; failing hearts, with and without forskolin): no significant increase in force development; also recorded: no evidence of ISA | inotropic effect on systolic force (dose-response curve slope) ([1]; β1AR Arg/Arg, forskolin pretreatment): inverse agonist; also recorded: negative curve slope | inotropic effect on systolic force (dose-response curve slope) ([1]; β1AR Gly carriers, forskolin pretreatment): neutral antagonist; also recorded: not different from 0 | inotropic effect on systolic force (dose-response curve slope) ([1]; β1AR Gly carriers, without forskolin): inverse agonist; also recorded: negative inotropic effect | expected hazard ratio bucindolol vs. metoprolol CR/XL, mortality plus HF hospitalization ([2]; α2c WT/WT U.S. population, 0.72/0.84): 0.86 | expected hazard ratio bucindolol:metoprolol CR/XL, mortality+HF hospitalizations ([2]; β1-389 Arg/Arg + α2c wild type vs MERIT U.S. data, 0.61/0.84): 0.73
